The source made the active and inactive calls.
How the values were obtained:
Assay type in all cases: functional, organism-based
Mus musculus [1] = assay: Antifibrotic activity in C57BL/6 mouse model of bleomycin-induced lung fibrosis assessed as reduction in hydroxyproline in lung homogenates at 60 mg/kg, po pre-treated 1 hr to 1 day before bleomycin injection and measured after 14 to 28 days by chloramine T and Erlich's solution based assay
Mus musculus [2] = assay: Antifibrotic activity in C57BL/6 mouse model of bleomycin-induced lung fibrosis assessed as reduction in cross linked collagen level in lung at 60 mg/kg, po pre-treated 1 hr to 1 day before bleomycin injection and measured after 14 to 28 days by Masson's trichrome staining based assay
Mus musculus [3] = assay: Antifibrotic activity in C57BL/6 mouse model of bleomycin-induced lung fibrosis assessed as reduction in alpha smooth muscle actin level in lung at 60 mg/kg, po pre-treated 1 hr to 1 day before bleomycin injection and measured after 14 to 28 days by immunohistochemistry analysis
Mus musculus [4] = assay: Antifibrotic activity in C57BL/6 mouse model of bleomycin-induced lung fibrosis assessed as reduction in cross linked collagen level in lung at 60 mg/kg, po pre-treated 1 hr to 1 day before bleomycin injection and measured after 14 to 28 days by Picro-Sirius staining based assay
Mus musculus [5] = assay: Antifibrotic activity in C57BL/6 mouse model of bleomycin-induced lung fibrosis assessed as reduction in collagen level in lung at 60 mg/kg, po pre-treated 1 hr to 1 day before bleomycin injection and measured after 14 to 28 days by hydroxyproline assay

Measured: Activity

NCc1cc(Oc2cccc(C(=O)N3CCN(c4ccccc4)CC3)c2)ncn1
active: all assays above

NCc1cc(Oc2cccc(C(=O)NCc3ccnc(Cl)c3)c2)ncn1
active: all assays above

From ChEMBL document CHEMBL4418287, “Lysyl oxidase-like 2 inhibitors and uses thereof” (2018)
